Measured values: ChEMBL document CHEMBL3797052 (Eur J Med Chem, 2016)

Key:
[1] = Antiproliferative activity against human TK10 cells assessed as cell growth at 10^-8 M after 48 hrs by sulforhodamine B assay; assay type: functional; details: TK-10, 48 h, read-out: Activity
NCI-H23 = assay: Antiproliferative activity against human NCI-H23 cells assessed as growth inhibition after 48 hrs by sulforhodamine B assay; assay type: functional; details: NCI-H23, 48 h
Malme-3M = assay: Antiproliferative activity against human MALME-3M cells assessed as cell growth at 10^-4 M after 48 hrs by sulforhodamine B assay; assay type: functional; details: read-out: Activity
[2] = Antiproliferative activity against human NCI-ADR-RES cells assessed as growth inhibition after 48 hrs by sulforhodamine B assay; assay type: functional
[3] = Antiproliferative activity against human UACC62 cells assessed as cell growth at 10^-7 M after 48 hrs by sulforhodamine B assay; assay type: functional; details: UACC-62, 48 h, read-out: Activity
[4] = Antiproliferative activity against human IGROV1 cells assessed as cell growth at 10^-6 M after 48 hrs by sulforhodamine B assay; assay type: functional; details: IGROV-1, 48 h, read-out: Activity
SK-MEL-5 = assay: Antiproliferative activity against human SK-MEL-5 cells assessed as cell growth at 10^-7 M after 48 hrs by sulforhodamine B assay; assay type: functional; details: SK-MEL-5, 48 h, read-out: Activity
[5] = Antiproliferative activity against human RXF393 cells assessed as growth inhibition after 48 hrs by sulforhodamine B assay; assay type: functional; details: RXF 393, 48 h
U-251 = assay: Antiproliferative activity against human U251 cells assessed as cell growth at 10^-6 M after 48 hrs by sulforhodamine B assay; assay type: functional; details: U-251, 48 h, read-out: Activity
SK-MEL-28 [6] = assay: Antiproliferative activity against human SK-MEL-28 cells assessed as cell growth at 10^-8 M after 48 hrs by sulforhodamine B assay; assay type: functional; details: SK-MEL-28, 48 h, read-out: Activity
[7] = Antiproliferative activity against human SNB75 cells assessed as cell growth at 10^-6 M after 48 hrs by sulforhodamine B assay; assay type: functional; details: SNB-75, 48 h, read-out: Activity
NCI-H322M = assay: Antiproliferative activity against human NCI-H322M cells assessed as cell growth at 10^-6 M after 48 hrs by sulforhodamine B assay; assay type: functional; details: read-out: Activity
CCRF-CEM = assay: Antiproliferative activity against human CCRF-CEM cells assessed as cell growth at 10^-8 M after 48 hrs by sulforhodamine B assay; assay type: functional; details: read-out: Activity
[8] = Antiproliferative activity against human Caki1 cells assessed as cell growth at 10^-4 M after 48 hrs by sulforhodamine B assay; assay type: functional; details: CAKI-1, 48 h, read-out: Activity
KM12 = assay: Antiproliferative activity against human KM12 cells assessed as cell growth at 10^-8 M after 48 hrs by sulforhodamine B assay; assay type: functional; details: KM12, 48 h, read-out: Activity
[9] = Antiproliferative activity against human SW620 cells assessed as cell growth at […] M after 48 hrs by sulforhodamine B assay; assay type: functional; details: SW-620, 48 h, read-out: Activity
[10] = Antiproliferative activity against human SNB75 cells assessed as cell growth at 10^-7 M after 48 hrs by sulforhodamine B assay; assay type: functional; details: SNB-75, 48 h, read-out: Activity
[11] = Antiproliferative activity against human HCC2998 cells assessed as cell growth at 10^-7 M after 48 hrs by sulforhodamine B assay; assay type: functional; details: HCC 2998, 48 h, read-out: Activity
[12] = Antiproliferative activity against human DU145 cells assessed as cell growth at 10^-7 M after 48 hrs by sulforhodamine B assay; assay type: functional; details: DU-145, 48 h, read-out: Activity
[13] = Antiproliferative activity against human Hs 578T cells assessed as growth inhibition after 48 hrs by sulforhodamine B assay; assay type: functional
NCI-H460 = assay: Antiproliferative activity against human NCI-H460 cells assessed as cell growth at 10^-4 M after 48 hrs by sulforhodamine B assay; assay type: functional; details: NCI-H460, 48 h, read-out: Activity
[14] = Antiproliferative activity against human OVCAR5 cells assessed as cell growth at 10^-8 M after 48 hrs by sulforhodamine B assay; assay type: functional; details: OVCAR-5, 48 h, read-out: Activity
[15] = Antiproliferative activity against human UACC62 cells assessed as cell growth at 10^-8 M after 48 hrs by sulforhodamine B assay; assay type: functional; details: UACC-62, 48 h, read-out: Activity
ACHN = assay: Antiproliferative activity against human ACHN cells assessed as growth inhibition after 48 hrs by sulforhodamine B assay; assay type: functional
[16] = Antiproliferative activity against human BT549 cells assessed as growth inhibition after 48 hrs by sulforhodamine B assay; assay type: functional; details: BT-549, 48 h
[17] = Antiproliferative activity against human UACC62 cells assessed as cell growth at 10^-4 M after 48 hrs by sulforhodamine B assay; assay type: functional; details: UACC-62, 48 h, read-out: Activity
SK-MEL-28 [18] = assay: Antiproliferative activity against human SK-MEL-28 cells assessed as cell growth at 10^-6 M after 48 hrs by sulforhodamine B assay; assay type: functional; details: SK-MEL-28, 48 h, read-out: Activity
A498 = assay: Antiproliferative activity against human A498 cells assessed as cell growth at 10^-8 M after 48 hrs by sulforhodamine B assay; assay type: functional; details: A498, 48 h, read-out: Activity
[19] = Antiproliferative activity against human TK10 cells assessed as cell growth at 10^-6 M after 48 hrs by sulforhodamine B assay; assay type: functional; details: TK-10, 48 h, read-out: Activity
EKVX = assay: Antiproliferative activity against human EKVX cells assessed as cell growth at 10^-4 M after 48 hrs by sulforhodamine B assay; assay type: functional; details: read-out: Activity
[20] = Antiproliferative activity against human UACC257 cells assessed as cell growth at 10^-4 M after 48 hrs by sulforhodamine B assay; assay type: functional; details: UACC-257, 48 h, read-out: Activity
T47D = assay: Antiproliferative activity against human T47D cells assessed as growth inhibition after 48 hrs by sulforhodamine B assay; assay type: functional
[21] = Antiproliferative activity against human HCT15 cells assessed as growth inhibition after 48 hrs by sulforhodamine B assay; assay type: functional; details: HCT-15, 48 h
[22] = molecular target: Serine/threonine-protein kinase B-raf (Homo sapiens, UniProt P15056, V600E); assay: Inhibition of BRAF V600E mutant (unknown origin) measured after 40 mins by scintillation counting
Sequence of Serine/threonine-protein kinase B-raf (P15056 2-766 V600E limits assumed): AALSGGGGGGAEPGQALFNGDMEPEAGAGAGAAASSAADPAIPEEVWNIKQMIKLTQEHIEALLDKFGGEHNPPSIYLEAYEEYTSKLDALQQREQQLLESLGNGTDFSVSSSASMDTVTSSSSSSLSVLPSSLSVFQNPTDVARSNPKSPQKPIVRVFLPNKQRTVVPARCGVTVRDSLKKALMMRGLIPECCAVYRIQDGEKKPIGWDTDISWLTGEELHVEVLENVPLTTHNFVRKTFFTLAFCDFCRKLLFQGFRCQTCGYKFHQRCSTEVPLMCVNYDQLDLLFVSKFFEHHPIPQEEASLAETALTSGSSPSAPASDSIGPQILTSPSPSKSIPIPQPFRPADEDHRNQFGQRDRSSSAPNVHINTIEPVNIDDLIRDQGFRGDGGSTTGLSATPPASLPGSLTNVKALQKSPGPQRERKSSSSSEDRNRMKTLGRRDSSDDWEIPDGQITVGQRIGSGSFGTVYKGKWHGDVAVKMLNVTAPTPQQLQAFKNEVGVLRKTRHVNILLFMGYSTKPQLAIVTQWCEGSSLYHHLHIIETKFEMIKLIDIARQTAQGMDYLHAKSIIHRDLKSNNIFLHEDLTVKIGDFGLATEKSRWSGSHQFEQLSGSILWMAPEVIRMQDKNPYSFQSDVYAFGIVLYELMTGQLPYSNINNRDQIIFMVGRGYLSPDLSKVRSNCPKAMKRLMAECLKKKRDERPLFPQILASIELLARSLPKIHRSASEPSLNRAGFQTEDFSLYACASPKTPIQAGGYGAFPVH

[23] = Antiproliferative activity against human TK10 cells assessed as growth inhibition after 48 hrs by sulforhodamine B assay; assay type: functional; details: TK-10, 48 h
[24] = Antiproliferative activity against human SF268 cells assessed as cell growth at 10^-4 M after 48 hrs by sulforhodamine B assay; assay type: functional; details: SF-268, 48 h, read-out: Activity
[25] = Antiproliferative activity against human RPMI8226 cells assessed as cell growth at 10^-7 M after 48 hrs by sulforhodamine B assay; assay type: functional; details: RPMI-8226, 48 h, read-out: Activity
[26] = read-out: LC50 (the source's name)

Work on CNC(=O)c1cc(Oc2ccc3nc(NC(=O)c4cc(C(F)(F)F)cc(C(F)(F)F)c4)sc3c2)ccn1 yielded a growth at 0.01 µM [1] of 95%, a GI50 (NCI-H23) of 3.37 µM and an LC50 (NCI-H23) greater than 100 µM. The TGI (NCI-H23) was 17.7 µM, the growth at 100 µM (Malme-3M) was -38% and the GI50 [2] was 3.67 µM. It also gave an LC50 (concentration killing 50% of cells) [2] greater than 100 µM, a TGI [2] of 19.1 µM and a growth at 0.1 µM [3] of 86%. For the same molecule, the growth at 1 µM [4] was 90%, the growth at 0.1 µM (SK-MEL-5) was 96% and the GI50 [5] was 2.79 µM. It also gave a TGI [5] of 8.37 µM, a CC50 [5, 26] of 40 µM and a growth at 1 µM (U-251) of 99%. For the same molecule, the growth at 0.01 µM (SK-MEL-28 [6]) was 97%, the growth at 1 µM [7] was 89% and the growth at 1 µM (NCI-H322M) was 52%. It also gave a growth at 0.01 µM (CCRF-CEM) of 99%, a growth at 100 µM [8] of -63% and a growth at 0.01 µM (KM12) of 101%. It also gave a growth at 0.01 µM [9] of 97%, a growth at 0.1 µM [10] of 77% and a growth at 0.1 µM [11] of 108%. It also gave a growth at 0.1 µM [12] of 105%, a GI50 [13] of 3.15 µM and a TGI [13] of 13.3 µM. The CC50 [13, 26] was greater than 100 µM, the growth at 100 µM (NCI-H460) was -69% and the growth at 0.01 µM [14] was 96%. For the same molecule, the growth at 0.01 µM [15] was 89%, the GI50 (ACHN) was 3.26 µM and the LC50 (ACHN) was 43.2 µM. For the same molecule, the TGI (ACHN) was 11.8 µM, the GI50 [16] was 3.05 µM and the TGI [16] was 12.4 µM. It also gave a CC50 [16, 26] greater than 100 µM, a growth at 100 µM [17] of -56% and a growth at 1 µM (SK-MEL-28 [18]) of 87%. The growth at 0.01 µM (A498) was 69%, the growth at 1 µM [19] was 97% and the growth at 100 µM (EKVX) was -27%. For the same molecule, the growth at 100 µM [20] was -45%, the GI50 (T47D) was 3.04 µM and the TGI (T47D) was 9.18 µM. The CC50 (T47D; [26]) was greater than 100 µM, the GI50 [21] was 3.97 µM and the LC50 [21] was greater than 100 µM. The TGI [21] was 25.1 µM, the IC50 [22] was 4.3 µM and the GI50 [23] was 3.37 µM. The TGI [23] was 13.3 µM, the CC50 [23, 26] was 74.9 µM and the growth at 100 µM [24] was -37%. For the same molecule, the growth at 0.1 µM [25] was 98%.
